What was measured:
[1] = target: T1, PTRF Polymerase I and transcript release factor (Homo sapiens, UniProt Q6NZI2); experiment: competitive isoTOP-ABPP; assay type: binding; conditions: for isoTOP-ABPP ratio (R) at liganded lysine Q6NZI2_K326: sol, 231
T1 construct: isoTOP-ABPP experiments performed in cell lysates (in vitro); endogenous in cells; host or cells: soluble proteome of human cancer cell lines (MDA-MB-231; Ramos and Jurkat also prepared)
T1 sequence (Q6NZI2 1-390): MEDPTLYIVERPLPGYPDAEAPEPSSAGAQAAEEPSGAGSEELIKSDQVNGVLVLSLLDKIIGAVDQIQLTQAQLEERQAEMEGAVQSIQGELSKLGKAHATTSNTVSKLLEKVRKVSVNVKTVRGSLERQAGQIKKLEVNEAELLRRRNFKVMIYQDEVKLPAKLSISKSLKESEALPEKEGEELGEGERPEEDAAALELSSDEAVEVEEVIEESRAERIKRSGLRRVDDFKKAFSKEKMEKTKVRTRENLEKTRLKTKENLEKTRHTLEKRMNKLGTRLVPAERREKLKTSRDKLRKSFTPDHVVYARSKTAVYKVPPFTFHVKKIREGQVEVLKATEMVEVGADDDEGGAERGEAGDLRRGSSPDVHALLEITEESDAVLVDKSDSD
Outline: (§1)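 Fragments at 50 μM (activated esters) or 100 μM (guanidinylating agents) were incubated with 0.5 ml lysate before probe labeling. After 0.1 mM STP-alkyne for 1 h, samples were clicked to isotopically distinct TEV tags, and R taken as DMSO-over-compound MS1 peak-area ratio.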

RTN3 Reticulon-3 = target: T2, RTN3 Reticulon-3 (Homo sapiens, UniProt O95197); experiment: competitive isoTOP-ABPP; assay type: binding; conditions: 50 uM, in vitro; for isoTOP-ABPP reactivity ratio at lysine O95197_K1022: 231 sol; for isoTOP-ABPP ratio (R) at liganded lysine O95197_K1022: sol, 231
T2 construct: isoTOP-ABPP experiments performed in cell lysates (in vitro); endogenous in cells; host or cells: MDA-MB-231 soluble lysate
T2 sequence (O95197 1-1032): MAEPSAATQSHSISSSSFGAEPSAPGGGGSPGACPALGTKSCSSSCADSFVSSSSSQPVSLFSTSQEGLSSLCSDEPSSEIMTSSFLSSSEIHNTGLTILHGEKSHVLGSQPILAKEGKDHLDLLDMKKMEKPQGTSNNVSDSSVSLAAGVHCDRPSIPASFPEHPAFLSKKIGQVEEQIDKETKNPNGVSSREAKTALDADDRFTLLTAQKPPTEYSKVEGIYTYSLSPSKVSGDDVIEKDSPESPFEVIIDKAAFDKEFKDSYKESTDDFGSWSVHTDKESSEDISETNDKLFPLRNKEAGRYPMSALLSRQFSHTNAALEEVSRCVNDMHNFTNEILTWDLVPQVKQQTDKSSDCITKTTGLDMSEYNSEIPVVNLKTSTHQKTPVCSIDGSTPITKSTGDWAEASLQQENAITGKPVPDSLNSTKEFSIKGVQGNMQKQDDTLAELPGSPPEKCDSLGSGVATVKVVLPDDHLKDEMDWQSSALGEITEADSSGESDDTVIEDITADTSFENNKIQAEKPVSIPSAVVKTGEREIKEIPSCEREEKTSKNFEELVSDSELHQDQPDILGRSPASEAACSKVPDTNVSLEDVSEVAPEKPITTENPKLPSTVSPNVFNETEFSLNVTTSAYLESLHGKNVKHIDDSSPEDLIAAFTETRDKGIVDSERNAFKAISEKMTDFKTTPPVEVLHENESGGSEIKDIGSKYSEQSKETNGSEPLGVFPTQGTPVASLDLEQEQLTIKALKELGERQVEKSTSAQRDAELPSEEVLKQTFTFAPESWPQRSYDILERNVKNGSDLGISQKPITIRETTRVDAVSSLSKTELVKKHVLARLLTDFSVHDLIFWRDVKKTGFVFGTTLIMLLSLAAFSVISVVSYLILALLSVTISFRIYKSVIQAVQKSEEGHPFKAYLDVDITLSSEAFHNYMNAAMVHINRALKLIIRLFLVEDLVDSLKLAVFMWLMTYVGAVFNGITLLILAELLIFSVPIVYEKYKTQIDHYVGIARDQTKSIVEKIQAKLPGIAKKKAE
Outline: as §1

Cn1cc(CC(=O)Oc2c(F)c(F)c(F)c(F)c2F)c2ccccc21 [fragment 22, Pentafluorophenyl 2-(1-methyl-1H-indol-3-yl)acetate]
R value (DMSO/fragment) for probe 1 labeling ([1]; Q6NZI2_K326, 50 uM, 231 sol, in vitro): 20.0

CCn1cc(C(=O)Oc2c(F)c(F)c(F)c(F)c2F)c(=O)c2ccc(C)nc21 [fragment 28, Pentafluorophenyl 1-ethyl-7-methyl-4-oxo-1,4-dihydro-1,8-naphthyridine-3-carboxylate]
isoTOP-ABPP reactivity ratio at lysine O95197_K1022 (RTN3 Reticulon-3): 1.2

O=C(CCc1cn(-c2ccccc2)nc1-c1ccccc1)Oc1ccc([N+](=O)[O-])cc1[N+](=O)[O-] [fragment 29, 2,4-Dinitrophenyl 3-(1,3-diphenyl-1H-pyrazol-4-yl)propanoate]
isoTOP-ABPP reactivity ratio at lysine Q6NZI2_K326 ([1]; 50 uM, 231 sol, in vitro): 20.0 | isoTOP-ABPP reactivity ratio at lysine O95197_K1022 (RTN3 Reticulon-3): 6.2

O=C(Oc1ccc([N+](=O)[O-])cc1[N+](=O)[O-])C(c1ccccc1)c1ccccc1 [fragment 30, 2,4-Dinitrophenyl 2,2-diphenylacetate]
isoTOP-ABPP reactivity ratio at lysine O95197_K1022 (RTN3 Reticulon-3): 20.0

COc1cc(CCC(=O)Oc2ccc([N+](=O)[O-])cc2[N+](=O)[O-])cc(OC)c1OC [fragment 33, 2,4-Dinitrophenyl 3-(3,4,5-trimethoxyphenyl)propanoate]
isoTOP-ABPP reactivity ratio at lysine O95197_K1022 (RTN3 Reticulon-3): 1.4

O=C(Oc1ccc([N+](=O)[O-])cc1[N+](=O)[O-])c1ccc(-c2ccccc2)cc1 [fragment 37, 2,4-Dinitrophenyl [1,1′-biphenyl]-4-carboxylate]
isoTOP-ABPP ratio (R) at liganded lysine Q6NZI2_K326 ([1]; 50 uM, in vitro): 20.0

O=C(Oc1ccc([N+](=O)[O-])cc1[N+](=O)[O-])c1ccc(Oc2ccccc2)cc1 [fragment 39, 2,4-Dinitrophenyl 4-phenoxybenzoate]
isoTOP-ABPP ratio (R) at liganded lysine Q6NZI2_K326 ([1]; 50 uM, in vitro): 0.8

O=C(Oc1ccc([N+](=O)[O-])cc1[N+](=O)[O-])c1ccccc1Nc1cccc(C(F)(F)F)c1 [fragment 40, 2,4-Dinitrophenyl 2-((3-(trifluoromethyl)phenyl)amino)benzoate]
isoTOP-ABPP ratio (R) at liganded lysine Q6NZI2_K326 ([1]; 50 uM, in vitro): 20.0 | isoTOP-ABPP ratio (R) at liganded lysine O95197_K1022 (RTN3 Reticulon-3): 1.7

CC(C)(C)OC(=O)NCCCC(=O)Oc1ccc([N+](=O)[O-])cc1[N+](=O)[O-] [fragment 41, 2,4-Dinitrophenyl 4-((tert-butoxycarbonyl)amino)butanoate]
isoTOP-ABPP ratio (R) at liganded lysine O95197_K1022 (RTN3 Reticulon-3): 1.6

O=C(Oc1ccc([N+](=O)[O-])cc1[N+](=O)[O-])C(c1ccccc1)(c1ccccc1)c1ccccc1 [fragment 42, 2,4-Dinitrophenyl 2,2,2-triphenylacetate]
isoTOP-ABPP ratio (R) at liganded lysine O95197_K1022 (RTN3 Reticulon-3): 1.1

O=C(CCc1ccc2c(c1)OCO2)Oc1ccc([N+](=O)[O-])cc1[N+](=O)[O-] [fragment 45, 2,4-Dinitrophenyl 3-(benzo[d][1,3]dioxol-5-yl)propanoate]
isoTOP-ABPP ratio, lysine Q6NZI2_K326 ([1]; 50 uM_231_sol_in vitro): 0.9
